Literature values, collected in US8772346B2, “Pharmaceutical composition” (Torrent Pharmaceuticals Limited, priority 2005, dated 2014).
Read-outs that look alike come from different tables or passages of the source.

Settings: HP-β-CD (10% w/v)

CCN(CC)C(=O)/C(C#N)=C/c1cc(O)c(O)c([N+](=O)[O-])c1 [entacapone]
increase of aqueous solubility of entacapone by complexation with HP-β-CD (pH 3.0): 12 fold
increase of aqueous solubility of entacapone by complexation with HP-β-CD (pH 5.0): 85 fold
